Where two headings read alike, the source gives them in different places.
Experiments:
DYRK1A = DYRK1A (Rattus norvegicus, UniProt Q63470); test: ATP competition assay on DYRK1A; assay type: biochemical; settings: ATP up to 0.8 mM
[1] = test system: LPS-induced inflammation in C57BL/6J mice; test: LPS-induced inflammation model; assay type: in vivo, mouse
Description: Neuroinflammation is an important factor contributing to cognitive impairment and neurodegenerative diseases such as PD, and the administration of LPS is frequently used to study neuroinflammation-associated diseases in mice.
Each group consisted of six male mice. […] Animals were pretreated for 3 days with the drug of choice; then, treatment with LPS commenced on day 0, and on the 5th day of LPS treatment, the drug was administered half an hour before LPS injection. One hour after LPS treatment, the animals were anesthetized with a mixture of ketamine, xylazine 2%, atropine, and saline (4:2.5:1:2.5). The body temperature of mice under anesthesia was maintained by applying a heating blanket and monitored using a rectal thermometer. After anesthesia, the animals underwent cardiac perfusion with ice-cold saline for three minutes (3 mL/minute via peristaltic pump) via the left ventricle. The right atrium was cut as an outflow route. The right hemisphere was post-fixed overnight in 4% PFA in PBS at 4 °C and stored in 1xPBS containing 0.1% (v/w) sodium azide at 4 °C. The left hemisphere, hippocampus, cortex, midbrain, and brainstem were microdissected, immersed in liquid nitrogen in separate tubes (with one-fifth of the rest of the brain tissue), and stored in microfuge tubes at −80°. TNFα (in both plasma and the hippocampus) was analyzed with ELISA, and the p-tau (AT-8 antibody) level was recorded in the hippocampus and cortex with WB.

[2] = Pharmacokinetic studies in C57BL/6 mice (plasma and tissues); assay type: in vivo, mouse; settings: for AUC(0-t) / Cmax / Tmax / AUC(0-inf) / half-life / bioavailability: both sexes, C57BL/6, mouse; for bioavailability: read-out: F (absolute bioavailability)
Description: To overcome the generally poor PK profile of catechins, we developed a proprietary formulation that allows for the delivery of these drugs in high concentrations for oral (PO) or intranasal (IN) use. Our liquid formulation is based on the solubilizer and penetration enhancer (2-hydroxypropyl)-β-cyclodextrin (HP-β-CD), PEG-400, and water. This vehicle allows us to achieve high drug concentration in dosing solution (up to 20% w/w) when needed. PK studies were conducted for 1c in adult male and female C57BL/6 mice (n = 3/sex/time point) using (1) a single IV dose (5 mg/kg), (2) an IN dose (60 mg/kg, 5 µL of a clear solution/nostril/twice), and (3) a single PO dose (100 mg/kg). We analyzed the concentration of the drug in several tissues, including the brain, lungs, liver, and plasma. We observed that this class of molecules is stable in circulation; however, when the tissues are harvested for bioanalytical work, the drug undergoes rapid degradation, probably because of the direct contact with oxygen and metals, which catalyzes its rapid degradation/oxidation. We were able to stabilize the drug in blood by the immediate addition of ascorbic acid and TCEP [29]; however, the same was not possible with solid organs such as the brain and liver, which need to be collected through surgery and homogenized before any stabilizing agent can be added. Therefore, tissue PK data tend to vary.
C57BL/6J mice were given a single dose of drug via the IN or PO route. […] For PO delivery, we replaced water with saline. The volume for IN delivery was 5 µL/nostril, and the volume used for oral delivery was 10 mL/kg. After sacrifice, blood (500 µL) was collected into K2EDTA microtubes and kept on ice all times (must be centrifuged within 30 min of collection). Blood was centrifuged in EDTA vacuum at 4 °C at 15,000× g for 4 min; ~250 µL of plasma was collected into polyethylene tubes containing 50 µL of AA/TCEP stabilizing solution (20 mM ascorbic acid and 13 mM TCEP in 50 mM K2HPO4 buffer; the pH of the solution was adjusted to 6.5 using 2 M NaOH). Then, 200 µL of the collected plasma was mixed with (1) 24 µL of a solution of 10% ascorbic acid and 0.1% EDTA in 40 mM NaH2PO4; (2) 40 µL of 50 mM sodium phosphate (pH 7.4); (3) 500 units of β-D-glucuronidase type X-A from Escherichia coli (Sigma Chemical Co, St Louis, MO, USA), and (4) 4 units of sulfatase type VIII from abalone entrails (Sigma Chemical Co). The mixture was incubated at 37 °C for 45 min. Plasma was then extracted by the addition of 0.5 mL ACN; the mixture was vortex-mixed for 2 min, then snap-frozen with isopropanol/carbon dioxide dry ice, and the upper layer of ACN was removed. The process was repeated another 2 times. The ACN fractions were pooled into a polyethylene tube kept on ice. The combined fractions were evaporated under a gentle stream of nitrogen at ambient temperature. The residue obtained after evaporation was reconstituted in 200 µL of 75 mM citric acid//25 mM ammonium acetate: ACN (75:25 by vol), and vortexed vigorously for 5 min, and 20 µL of the resulting solution was injected into the LC-MS/MS column.
Drug analysis in tissues: About ~0.4 g of the tissue was homogenized with 1 mL of ice-cold 0.4 M sodium phosphate buffer containing 6 mg of ascorbic acid and 0.5 mg of Na2EDTA (final pH of 6.5). After centrifugation at 4 °C at 15,000× g for 4 min, the supernatant was collected into polyethylene tubes containing 50 µL of the AA/TCEP stabilizing solution. Then 1 U of sulfatase and 250 U of β-glucuronidase were added to the abovementioned homogenized mixture. Samples were incubated at 37 °C for 45 min, then extracted, dried, and resuspended in a manner similar to that for plasma. Samples were then analyzed by LC-MS/MS.

[3] = PO 30 mg/kg BID, from 3 days before LPS (i.p. 750 µg/kg, 5 days)
[4] = inhaled or intranasal, IN (60 mg/kg), brain
[5] = inhaled or intranasal, IN (60 mg/kg), plasma

mode of inhibition with varying ATP (DYRK1A): non-ATP-competitive inhibitor | Tlast ([2]; IN (60 mg/kg), brain): 8 h | Tlast ([2]; IN (60 mg/kg), plasma): 24 h | Tlast ([2]; PO (100 mg/kg), brain): 24 h | Tlast ([2]; PO (100 mg/kg), plasma): 24 h | AUC(0-t) ([2]; PO (100 mg/kg), brain): 2390 ng·h/mL | Cmax ([2]; PO (100 mg/kg), brain): 110 ng/mL | Tmax ([2]; PO (100 mg/kg), brain): 2 h | AUC(0-inf) ([2]; PO (100 mg/kg), plasma): 4280 ng·h/mL | AUC(0-t) ([2]; PO (100 mg/kg), plasma): 4170 ng·h/mL | Cmax ([2]; PO (100 mg/kg), plasma): 684 ng/mL | Tmax ([2]; PO (100 mg/kg), plasma): 1 h | half-life ([2]; PO (100 mg/kg), plasma): 4.7 h | AUC(0-t) [2, 4]: 116 ng·h/mL | Cmax [2, 4]: 18 ng/mL | Tmax [2, 4]: 0.5 h | AUC(0-inf) [2, 5]: 16100 ng·h/mL | AUC(0-t) [2, 5]: 15800 ng·h/mL | Cmax [2, 5]: 2350 ng/mL | Tmax [2, 5]: 2 h | half-life [2, 5]: 4.8 h | AUC(0-inf) ([2]; plasma, iv, i.v. (5mg/kg)): 1390 ng·h/mL | AUC(0-t) ([2]; plasma, iv, i.v. (5mg/kg)): 1280 ng·h/mL | Cmax ([2]; plasma, iv, i.v. (5mg/kg)): 657 ng/mL | Tmax ([2]; plasma, iv, i.v. (5mg/kg)): 0 h | half-life ([2]; plasma, iv, i.v. (5mg/kg)): 3.2 h | bioavailability ([2]; plasma, other: intranasal (IN), 60 mg/kg, IN (60 mg/kg), plasma): 100% | bioavailability ([2]; plasma, po, 100 mg/kg, PO (100 mg/kg), plasma): ~16% | Tlast ([2]; i.v. (5mg/kg)): 10 h
Compound: COc1cc(C(=O)O[C@@H]2Cc3c(O)cc(O)cc3O[C@H]2c2cc(O)c(O)c(O)c2)c(F)c(O)c1O [Compound 1c]
inhibition of tau phosphorylation ([1]; IN 30 mg/kg BID, LPS i.p. 750 µg/kg): lack of efficacy | tau phosphorylation in the hippocampus ([1]; PO 30 mg/kg BID, LPS i.p. 750 µg/kg): reduced tau phosphorylation | TNFα accumulation in plasma [1, 3]: significantly (p < 0.05) decreasing | TNFα accumulation in the brain [1, 3]: significantly (p < 0.05) decreasing

— paper PMC10058583, “Development of Novel Fluorinated Polyphenols as Selective Inhibitors of DYRK1A/B Kinase for Treatment of Neuroinflammatory Diseases including Parkinson’s Disease” (Pharmaceuticals, 2023)
